The record followed here is patent US20110212968A1, “PHENETHYLAMIDE DERIVATIVES AND THEIR HETEROCYCLIC ANALOGUES” (priority 2008, published 2011).

Broadly, the IC50 is the concentration that gives 50% inhibition.

One assay concerns the target T1, human orexin-1 receptor (Homo sapiens, UniProt O43613).
T1 construct: expressed in transfected cells; host or cells: CHO (Chinese hamster ovary) cells, kept under G418 selection
T1 sequence (O43613 1-425): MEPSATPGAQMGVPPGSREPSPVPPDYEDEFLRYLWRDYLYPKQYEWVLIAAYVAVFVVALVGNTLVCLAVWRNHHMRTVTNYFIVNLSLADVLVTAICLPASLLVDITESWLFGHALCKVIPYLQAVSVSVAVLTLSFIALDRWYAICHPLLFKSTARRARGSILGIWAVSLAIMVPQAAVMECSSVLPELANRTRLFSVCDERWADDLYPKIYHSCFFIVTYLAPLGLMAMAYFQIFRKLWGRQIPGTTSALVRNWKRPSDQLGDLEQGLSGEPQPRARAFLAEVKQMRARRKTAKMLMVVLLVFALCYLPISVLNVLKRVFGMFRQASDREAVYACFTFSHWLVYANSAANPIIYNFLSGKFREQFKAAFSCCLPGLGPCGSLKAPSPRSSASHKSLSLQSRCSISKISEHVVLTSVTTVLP
The assay can be described thus: Intracellular calcium measurement (FLIPR Tetra), orexin receptor antagonistic activity, OX1. It is filed as cell-based. To be noted: CHO cells expressing human orexin-1 receptor, 3 nM orexin-A. How it is done: (§1) The orexin receptor antagonistic activity of the compounds of formula (I) is determined in accordance with one of the following experimental methods.
(§2) Chinese hamster ovary (CHO) cells expressing the human orexin-1 receptor and the human orexin-2 receptor, respectively, are grown in culture medium (Ham F-12 with L-Glutamine) containing 300 μg/ml G418, 100 U/ml penicillin, 100 μg/ml streptomycin and 10% heat inactivated fetal calf serum (FCS). The cells are seeded at 20,000 cells/well into 384-well black clear bottom sterile plates (Greiner). The seeded plates are incubated overnight at 37° C. in 5% CO2.
(§3) Human orexin-A as an agonist is prepared as 1 mM stock solution in MeOH:water (1:1), diluted in HBSS containing 0.1% bovine serum albumin (BSA), NaHCO3: 0.375 g/l and 20 mM HEPES for use in the assay at a final concentration of 3 nM. Antagonists are prepared as 10 mM stock solution in DMSO, then diluted in 384-well plates, first in DMSO, then in HBSS containing 0.1% bovine serum albumin (BSA), NaHCO3: 0.375 g/l and 20 mM HEPES.
(§4) On the day of the assay, 50 μl of staining buffer (HBSS containing 1% FCS, 20 mM HEPES, NaHCO3: 0.375 g/l, 5 mM probenecid (Sigma) and 3 μM of the fluorescent calcium indicator fluo-4 AM (1 mM stock solution in DMSO, containing 10% pluronic) is added to each well.
(§5) The 384-well cell-plates are incubated for 50 min at 37° C. in 5% CO2 followed by equilibration at RT for 30-120 min before measurement.
(§6) Within the Fluorescent Imaging Plate Reader (FLIPR Tetra, Molecular Devices), antagonists are added to the plate in a volume of 10 μl/well, incubated for 10 min and finally 10 μl/well of agonist is added. Fluorescence is measured for each well at 1 second intervals, and the height of each fluorescence peak is compared to the height of the fluorescence peak induced by 3 nM orexin-A with vehicle in place of antagonist. For each antagonist, the IC50 value (the concentration of compound needed to inhibit 50% of the agonistic response) is determined and may be normalized using the obtained IC50 value of a on-plate reference compound (normalized values in Table 1 are indicated by an asterisk *). With the FLIPR Tetra, two different conditions (conditions A and conditions B) were used, differing in adjustment of pipetting speed and cell splitting regime. The calculated IC50 values of the compounds may fluctuate depending on the daily cellular assay performance. Fluctuations of this kind are known to those skilled in the art.

A further assay has as its target T2, human orexin-2 receptor (Homo sapiens, UniProt O43614).
T2 construct: expressed in transfected cells; host or cells: CHO (Chinese hamster ovary) cells, kept under G418 selection
T2 sequence (O43614 1-444): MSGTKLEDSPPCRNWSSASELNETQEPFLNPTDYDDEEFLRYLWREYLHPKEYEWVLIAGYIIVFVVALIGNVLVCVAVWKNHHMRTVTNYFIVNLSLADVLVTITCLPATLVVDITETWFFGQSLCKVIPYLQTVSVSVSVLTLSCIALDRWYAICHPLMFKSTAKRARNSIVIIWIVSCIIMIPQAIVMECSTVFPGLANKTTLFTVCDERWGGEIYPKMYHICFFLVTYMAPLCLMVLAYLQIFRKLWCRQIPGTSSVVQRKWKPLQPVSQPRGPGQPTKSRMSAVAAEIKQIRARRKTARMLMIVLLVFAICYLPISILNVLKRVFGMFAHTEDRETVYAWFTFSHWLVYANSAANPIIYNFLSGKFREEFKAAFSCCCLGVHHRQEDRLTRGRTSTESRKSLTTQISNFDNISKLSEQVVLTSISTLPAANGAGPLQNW
The assay can be described thus: Intracellular calcium measurement (FLIPR Tetra), orexin receptor antagonistic activity, OX2. It is filed as cell-based. To be noted: CHO cells expressing human orexin-2 receptor, 3 nM orexin-A. The procedure: as §1, §2, §3, §4, §5, §6
A general note: A change in cytosolic calcium serves as a functional read-out for many receptors and channels.

Molecules are shown by their SMILES.

In the case of `COc1ccc(CCN(CC2CC2)C(=O)c2sc(C)nc2-c2ccc(F)cc2)cc1OC` [Example 50, 4-(4-Fluoro-phenyl)-2-methyl-thiazole-5-carboxylic acid cyclopropylmethyl-[2-(3,4-dimethoxy-phenyl)-ethyl]-amide], the results for the half-maximal inhibitory concentration (IC50) at human orexin-1 receptor (conditions A) and on human orexin-2 receptor (conditions A) were greater than 10000 nM and 10 nM, respectively.

As for `COc1ccc(CCN(CC2CC2)C(=O)c2c(-c3ccccc3)nnc3ccccc23)cc1OC` [Example 51, 3-Phenyl-cinnoline-4-carboxylic acid cyclopropylmethyl-[2-(3,4-dimethoxy-phenyl)-ethyl]-amide], the IC50 at human orexin-1 receptor (conditions A) is 1440 nM; on human orexin-2 receptor (conditions A), 34 nM.

Take `COc1ccc(CCN(CC2CC2)C(=O)c2snnc2-c2ccccc2)cc1OC` [Example 53, 4-Phenyl-[1,2,3]thiadiazole-5-carboxylic acid cyclopropylmethyl-[2-(3,4-dimethoxy-phenyl)-ethyl]-amide]: the IC50 at human orexin-1 receptor (conditions A) came to 8670 nM; on human orexin-2 receptor (conditions A), 81 nM.

Take `COc1ccc(C(O)CN(CC2CC2)C(=O)c2nc(Br)sc2-c2cccc(C)c2)cc1OC` (stereo not drawn) [Example 56, 2-Bromo-5-m-tolyl-thiazole-4-carboxylic acid cyclopropylmethyl-[2-(3,4-dimethoxy-phenyl)-2-hydroxy-ethyl]-amide]: the IC50 at human orexin-1 receptor (conditions A) amounted to 697 nM; at human orexin-2 receptor (conditions A), 299 nM.

As for `COc1nc(C(=O)N(CC2CC2)CC(O)c2ccc(OC)c(OC)c2)c(-c2cccc(C)c2)s1` (stereo not drawn) [Example 78, 2-Methoxy-5-m-tolyl-thiazole-4-carboxylic acid cyclopropylmethyl-[2-(3,4-dimethoxy-phenyl)-2-hydroxy-ethyl]-amide], the IC50 was 1120 nM at human orexin-1 receptor (conditions A) and 141 nM at human orexin-2 receptor (conditions A).

As to `COc1ccc(C(O)CN(CC2CC2)C(=O)c2nc(N(C)C)sc2-c2cccc(C)c2)cc1OC` (stereo not drawn) [Example 79, 2-Dimethylamino-5-m-tolyl-thiazole-4-carboxylic acid cyclopropylmethyl-[2-(3,4-dimethoxy-phenyl)-2-hydroxy-ethyl]-amide], the IC50 came out at 276 nM on human orexin-1 receptor (conditions A) and 158 nM at human orexin-2 receptor (conditions A).

As for `COc1ccc(C(O)CN(CC2CC2)C(=O)c2ncsc2-c2cccc(C(F)(F)F)c2)cc1OC` (stereo not drawn) [Example 85, 5-(3-Trifluoromethyl-phenyl)-thiazole-4-carboxylic acid cyclopropylmethyl-[2-(3,4-dimethoxy-phenyl)-2-hydroxy-ethyl]-amide], the concentration for half-maximal inhibition (IC50) at human orexin-1 receptor (conditions A) was greater than 10000 nM; at human orexin-2 receptor (conditions A) it was 551 nM.

As to `COc1ccc(C(O)CN(CC2CC2)C(=O)c2c(-c3ccccc3)nc3ccc(Cl)cn23)cc1OC` (stereo not drawn) [Example 97, 6-Chloro-2-phenyl-imidazo[1,2-a]pyridine-3-carboxylic acid cyclopropylmethyl-[2-(3,4-dimethoxy-phenyl)-2-hydroxy-ethyl]-amide], the IC50 stood at 4920 nM at human orexin-1 receptor (conditions A) and 263 nM at human orexin-2 receptor (conditions A).

As to `COc1ccc(C(O)CN(CC2CC2)C(=O)c2nccnc2-c2ccccc2)cc1OC` (stereo not drawn) [Example 99, 3-Phenyl-pyrazine-2-carboxylic acid cyclopropylmethyl-[2-(3,4-dimethoxy-phenyl)-2-hydroxy-ethyl]-amide], the IC50 was greater than 10000 nM on human orexin-1 receptor (conditions A) and 41 nM on human orexin-2 receptor (conditions A).

For the compound `COc1ccc(CCN(C)C(=O)c2nc(N)sc2-c2cccc(C)c2)cc1OC` [Example 104, 2-Amino-5-m-tolyl-thiazole-4-carboxylic acid [2-(3,4-dimethoxy-phenyl)-ethyl]-methyl-amide], the IC50 at human orexin-1 receptor (conditions B) was 405 nM; at human orexin-2 receptor (conditions B), 5 nM.

Regarding `CCN(CCc1ccc(OC)c(OC)c1)C(=O)c1nc(N)sc1-c1cccc(C)c1` [Example 107, 2-Amino-5-m-tolyl-thiazole-4-carboxylic acid [2-(3,4-dimethoxy-phenyl)-ethyl]-ethyl-amide], the concentration for half-maximal inhibition (IC50) on human orexin-1 receptor (conditions B) was 41 nM; at human orexin-2 receptor (conditions B), 2 nM.

On to `CCN(CCc1ccc(OC)c(OC)c1)C(=O)c1nc(C)sc1-c1ccc(C)c(C)c1` [Example 108, 5-(3,4-Dimethyl-phenyl)-2-methyl-thiazole-4-carboxylic acid [2-(3,4-dimethoxy-phenyl)-ethyl]-ethyl-amide], for which the IC50 is 36 nM on human orexin-1 receptor (conditions B) and 5 nM at human orexin-2 receptor (conditions B).
